Results reported in US10798941B2, “Microbiocidal oxadiazole derivatives” (SYNGENTA PARTICIPATIONS AG, priority 2016, dated 2020).

Columns and labels:
[1] = tested on: Puccinia recondita f. Sp. Tritici; test: Puccinia recondita f. sp. tritici / wheat / leaf disc preventative (brown rust); assay type: in vivo; settings: foliar, 168 h, 200 ppm in the applied formulation, wheat leaf segments cv. Kanzler, preventative, inoculated 1 day after application, assessed 7 to 9 days after application, vs untreated, read-out: disease control
Protocol: (§1) Leaf disks or leaf segments of various plant species are cut from plants grown in a greenhouse. The cut leaf disks or segments are placed in multiwell plates (24-well format) onto water agar. The leaf disks are sprayed with a test solution before (preventative) or after (curative) inoculation. Compounds to be tested are prepared as DMSO solutions (max. 10 mg/ml) which are diluted to the appropriate concentration with 0.025% Tween20 just before spraying. The inoculated leaf disks or segments are incubated under defined conditions (temperature, relative humidity, light, etc.) according to the respective test system. A single evaluation of disease level is carried out 3 to 14 days after inoculation, depending on the pathosystem. Percent disease control relative to the untreated check leaf disks or segments is then calculated.
Wheat leaf segments cv. Kanzler were placed on agar in multiwell plates (24-well format) and sprayed with the formulated test compound diluted in water. The leaf disks were inoculated with a spore suspension of the fungus 1 day after application. The inoculated leaf segments were incubated at 19° C. and 75% relative humidity (rh) under a light regime of 12 hours light/12 hours darkness in a climate cabinet and the activity of a compound was assessed as percent disease control compared to untreated when an appropriate level of disease damage appears in untreated check leaf segments (7 to 9 days after application).
(§2) The following compounds at 200 ppm in the applied formulation give at least 80% disease control in this test when compared to untreated control leaf disks under the same conditions, which show extensive disease development.

[2] = tested on: Puccinia recondita f. Sp. Tritici; test: Puccinia recondita f. sp. tritici / wheat / leaf disc curative (brown rust); assay type: in vivo; settings: foliar, 144 h, 200 ppm in the applied formulation, wheat leaf segments cv. Kanzler, applied 1 day after inoculation, assessed 6 to 8 days after application, vs untreated, read-out: disease control
Protocol: as §1
Wheat leaf segments cv. Kanzler are placed on agar in multiwell plates (24-well format). The leaf segments are then inoculated with a spore suspension of the fungus. Plates were stored in darkness at 19° C. and 75% relative humidity. The formulated test compound diluted in water was applied 1 day after inoculation. The leaf segments were incubated at 19° C. and 75% relative humidity under a light regime of 12 hours light/12 hours darkness in a climate cabinet and the activity of a compound was assessed as percent disease control compared to untreated when an appropriate level of disease damage appears in untreated check leaf segments (6 to 8 days after application).
as §2

[3] = tested on: Glomerella Lagenarium (Colletotrichum Lagenarium); test: Glomerella lagenarium (Colletotrichum lagenarium) liquid culture / cucumber / preventative (anthracnose); assay type: cell-based; settings: Colletotrichum orbiculare; 20 ppm in the applied formulation; liquid culture in PDB, 24° C., inhibition of growth measured photometrically 3 to 4 days after application, vs untreated; read-out: disease control
In short: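 Conidia from cryogenic storage were mixed into potato dextrose broth. This was added to compound diluted from DMSO into 0.025% Tween20, tested at 20 ppm. Plates were incubated in the dark at 24 °C and 96% relative humidity, and growth was read photometrically after 2–7 days as % activity versus untreated check.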

Row | SMILES | pest or weed control at 200 ppm [1] [%] | pest or weed control at 200 ppm [2] [%] | inhibition of growth at 20 ppm [3] [%]
1 | FC(F)(F)c1nc(-c2ccc(Cn3cc(I)cn3)cc2)no1 [Compound 1.44, 3-[4-[(4-iodopyrazol-1-yl)methyl]phenyl]-5-(trifluoromethyl)-1,2,4-oxadiazole] | ≥ 80 | ≥ 80 | ≥ 80
2 | N#Cc1ncn(Cc2ccc(-c3noc(C(F)(F)F)n3)cc2)c1C#N [Compound 1.45, 1-[[4-[5-(trifluoromethyl)-1,2,4-oxadiazol-3-yl]phenyl]methyl]imidazole-4,5-dicarbonitrile] | ≥ 80 | ≥ 80 | ≥ 80
3 | FC(F)(F)c1nc(-c2ccc(Cn3cnc(Cl)c3Cl)cc2)no1 [Compound 1.46, 3-[4-[(4,5-dichloroimidazol-1-yl)methyl]phenyl]-5-(trifluoromethyl)-1,2,4-oxadiazole] | ≥ 80 | ≥ 80 | ≥ 80
4 | FC(F)(F)c1cnn(Cc2ccc(-c3noc(C(F)(F)F)n3)cc2)c1 [Compound 1.55, 5-(trifluoromethyl)-3-[4-[[4-(trifluoromethyl)pyrazol-1-yl]methyl]phenyl]-1,2,4-oxadiazole] | ≥ 80 | ≥ 80 | ≥ 80
5 | O=Cc1cccn1Cc1ccc(-c2noc(C(F)(F)F)n2)cc1 [Compound 1.62, 1-[[4-[5-(trifluoromethyl)-1,2,4-oxadiazol-3-yl]phenyl]methyl]pyrrole-2-carbaldehyde] | ≥ 80 | ≥ 80 | ≥ 80
6 | FC(F)(F)c1nc(-c2ccc(Cn3cc(Cl)cn3)cc2)no1 [Compound 1.67, 3-[4-[(4-chloropyrazol-1-yl)methyl]phenyl]-5-(trifluoromethyl)-1,2,4-oxadiazole] | ≥ 80 | ≥ 80 | ≥ 80
7 | N#Cc1cnn(Cc2ccc(-c3noc(C(F)(F)F)n3)cc2)c1 [Compound 1.76, 1-[[4-[5-(trifluoromethyl)-1,2,4-oxadiazol-3-yl]phenyl]methyl]pyrazole-4-carbonitrile] | ≥ 80 | ≥ 80 | ≥ 80
8 | CCOC(=O)c1c(C)ncn1Cc1ccc(-c2noc(C(F)(F)F)n2)cc1 [Compound 1.80, ethyl 5-methyl-3-[[4-[5-(trifluoromethyl)-1,2,4-oxadiazol-3-yl]phenyl]methyl]imidazole-4-carboxylate] | ≥ 80 | ≥ 80 | ≥ 80
9 | Cn1c(=O)c2c(ncn2Cc2ccc(-c3noc(C(F)(F)F)n3)cc2)n(C)c1=O [Compound 1.81, 1,3-dimethyl-7-[[4-[5-(trifluoromethyl)-1,2,4-oxadiazol-3-yl]phenyl]methyl]purine-2,6-dione] | ≥ 80 | ≥ 80 | ≥ 80
10 | FC(F)(F)c1nc(-c2ccc(Cn3cnc(-c4ccccc4)c3)cc2)no1 [Compound 1.82, 3-[4-[(4-phenylimidazol-1-yl)methyl]phenyl]-5-(trifluoromethyl)-1,2,4-oxadiazole] | ≥ 80 | ≥ 80 | ≥ 80
11 | Cc1cn(Cc2ccc(-c3noc(C(F)(F)F)n3)cc2)cn1 [Compound 1.83, 3-[4-[(4-methylimidazol-1-yl)methyl]phenyl]-5-(trifluoromethyl)-1,2,4-oxadiazole] | ≥ 80 | ≥ 80 | ≥ 80
12 | COC(=O)c1cncn1Cc1ccc(-c2noc(C(F)(F)F)n2)cc1 [Compound 1.89, methyl 3-[[4-[5-(trifluoromethyl)-1,2,4-oxadiazol-3-yl]phenyl]methyl]imidazole-4-carboxylate] | ≥ 80 | ≥ 80 | ≥ 80
13 | COC(=O)c1ncn(Cc2ccc(-c3noc(C(F)(F)F)n3)cc2F)c1C(=O)OC [Compound 1.118, dimethyl 1-[[2-fluoro-4-[5-(trifluoromethyl)-1,2,4-oxadiazol-3-yl]phenyl]methyl]imidazole-4,5-dicarboxylate] | ≥ 80 | ≥ 80 | ≥ 80
14 | N#Cc1ncn(Cc2ccc(-c3noc(C(F)(F)F)n3)cc2F)c1C#N [Compound 1.119, 1-[[2-fluoro-4-[5-(trifluoromethyl)-1,2,4-oxadiazol-3-yl]phenyl]methyl]imidazole-4,5-dicarbonitrile] | ≥ 80 | ≥ 80 | ≥ 80
15 | Fc1cc(-c2noc(C(F)(F)F)n2)ccc1Cn1cnc(Br)c1 [Compound 1.120, 3-[4-[(4-bromoimidazol-1-yl)methyl]-3-fluoro-phenyl]-5-(trifluoromethyl)-1,2,4-oxadiazole] | ≥ 80 | ≥ 80 | ≥ 80
16 | Fc1cc(-c2noc(C(F)(F)F)n2)ccc1Cn1cnc(Cl)c1Cl [Compound 1.121, 3-[4-[(4,5-dichloroimidazol-1-yl)methyl]-3-fluoro-phenyl]-5-(trifluoromethyl)-1,2,4-oxadiazole] | ≥ 80 | ≥ 80 | ≥ 80
17 | Cc1nccn1Cc1ccc(-c2noc(C(F)(F)F)n2)cc1F [Compound 1.123, 3-[3-fluoro-4-[(2-methylimidazol-1-yl)methyl]phenyl]-5-(trifluoromethyl)-1,2,4-oxadiazole] | ≥ 80 | ≥ 80 | 
18 | Cc1cn(Cc2ccc(-c3noc(C(F)(F)F)n3)cc2F)cn1 [Compound 1.124, 3-[3-fluoro-4-[(4-methylimidazol-1-yl)methyl]phenyl]-5-(trifluoromethyl)-1,2,4-oxadiazole] | ≥ 80 | ≥ 80 | ≥ 80
19 | Fc1cc(-c2noc(C(F)(F)F)n2)ccc1Cn1cc(Cl)cn1 [Compound 1.128, 3-[4-[(4-chloropyrazol-1-yl)methyl]-3-fluoro-phenyl]-5-(trifluoromethyl)-1,2,4-oxadiazole] | ≥ 80 | ≥ 80 | ≥ 80
20 | Fc1cc(-c2noc(C(F)(F)F)n2)ccc1Cn1cc(I)cn1 [Compound 1.131, 3-[3-fluoro-4-[(4-iodopyrazol-1-yl)methyl]phenyl]-5-(trifluoromethyl)-1,2,4-oxadiazole] | ≥ 80 | ≥ 80 | ≥ 80
21 | Fc1cc(-c2noc(C(F)(F)F)n2)ccc1Cn1cc(Br)cn1 [Compound 1.132, 3-[4-[(4-bromopyrazol-1-yl)methyl]-3-fluoro-phenyl]-5-(trifluoromethyl)-1,2,4-oxadiazole] | ≥ 80 | ≥ 80 | ≥ 80
22 | COC(=O)c1ncn(Cc2ccc(-c3noc(C(F)(F)F)n3)cn2)c1C(=O)OC [Compound 1.133, dimethyl 1-[[5-[5-(trifluoromethyl)-1,2,4-oxadiazol-3-yl]-2-pyridyl]methyl]imidazole-4,5-dicarboxylate] | ≥ 80 | ≥ 80 | ≥ 80
23 | FC(F)(F)c1nc(-c2ccc(Cn3ccnc3)nc2)no1 [Compound 1.141, 3-[6-(imidazol-1-ylmethyl)-3-pyridyl]-5-(trifluoromethyl)-1,2,4-oxadiazole] | ≥ 80 | ≥ 80 | 
24 | Cc1cn(Cc2ccc(-c3noc(C(F)(F)F)n3)cc2F)c(C)n1 [Compound 1.145, 3-[4-[(2,4-dimethylimidazol-1-yl)methyl]-3-fluoro-phenyl]-5-(trifluoromethyl)-1,2,4-oxadiazole] | ≥ 80 | ≥ 80 | 
25 | N#Cc1ncnn1Cc1ccc(-c2noc(C(F)(F)F)n2)nc1 [Compound 1.258, 2-[[6-[5-(trifluoromethyl)-1,2,4-oxadiazol-3-yl]-3-pyridyl]methyl]-1,2,4-triazole-3-carbonitrile] |  | ≥ 80 | ≥ 80
